This is an account of results in patent US12528774B2, “Thiosemicarbazone compounds and uses thereof” (The Regents of the University of California, priority 2019, dated 2026).

This assay has as its system MIAPACA2 cells. Briefly: Western blot of treated MIAPACA2 cells. It is filed as cell-based, human. The note with it: for phosphorylation of CHEK1 and CHEK2: HCT13 + Cu(II). On the procedure: FIGS. 2A-2I. FIG. 2A: representative immunoblots of MIAPACA2 PDAC cells treated as indicated for 24h. FIGS. 2B-2C: reactive oxygen species (ROS) measurement using CM-H2DCFDA staining after HCT13 (25 nM)+Cu(II) (20 μM) treatment for 24h; mean fluorescence intensity (MFI); mean±SD, n=2, Student t-test, ***P<0.001. FIG. 2D-2E: mitochondrial ROS detection using MitoSOX staining in MIAPACA2 PDAC cells treated with HCT-13 (25 nM)+Cu(II) (20 μM) for 24h; mean±SD, n=2, Student t-test, ***P<0.001. FIG. 2F: oxygen consumption rate (OCR) of MIAPACA2 PDAC cells treated with HCT-13 (25 nM)+Cu(II) (20 μM). FIG. 2G: OCR of isolated mitochondria measured with or without HCT-13 (25 nM)+Cu(II) (20 μM). FIG. 2H: viability of 143 BTK parental (wild type, WT) and po cells after 48 h of treatment with the indicated HCT-13 concentrations+Cu(II) (20 μM) treatment, assessed with trypan blue staining; mean±SD, n=2, Student t-test, ***P<0.001. FIG. 2I: cell viability by trypan blue staining in MIAPACA2 PDAC cells to interrogate the interaction of HCT-13 (25 nM)+Cu(II) (20 μM) with 2-DG (2 mM) for 48 h; mean±SD, n=2, Student t-test, ***P<0.001.
FIGS. 4A-4G show the chemical genomics screen identifying the replication stress response pathway as an actionable co-dependency of HCT13-treated cells. FIG. 4A: experimental design of a synthetic lethality screen using a library of protein kinase inhibitors against HCT13-treated cells in the presence of Cu(II) (20 μM). FIG. 4B: radar plot of screen results. FIG. 4C: z-score values for kinase inhibitors within the DNA damage response/replication stress response (DDR/RSR) pathway module. FIG. 4D: representative immunoblot of replication stress and cell death biomarkers in MIAPACA2 PDAC cells treated with HCT13 (10 nM)+Cu(II) (20 μM). […] (mean±SD, n=2, one-way ANOVA corrected for multiple comparisons by Bonferroni adjustment, * P<0.05; ** P<0.01; *** P<0.001; **** P<0.0001).
(§1) Western blot: Cells were lysed using RIPA buffer supplemented with protease (ThermoFisher, 78,430) and phosphatase (ThermoFisher, 78,420) inhibitors, scraped, sonicated, and centrifuged (20,000×g at 4° C.). Protein concentrations in the supernatant were determined using the Micro BCA Protein Assay kit (Thermo), and equal amounts of protein were resolved on pre-made Bis-Tris polyacrylamide gels (Life Technologies). Primary antibodies: pAMPKT172 (Cell signaling, #2535, 1:1000), HO-1 (Cell signaling, #5061S, 1:1000), pS345 CHEK1 (Cell signaling, #2348L, 1:1000), pT68 CHEK2 (Cell signaling, #2197 S, 1:1000), pS139 H2A.X (Millipore, 05-636, 1:1000), clvd. Casp3 (Cell signaling, #9662, 1:1000), and anti-actin (Cell Signaling Technology, 9470, 1:10,000). Primary antibodies were stored in 5% BSA (Sigma-Aldrich) and 0.1% NaN3 in TBST solution. Anti-rabbit IgG HRP-linked (Cell Signaling Technology, 7074, 1:2500) and anti-mouse IgG HRP-linked (Cell Signaling Technology, 7076, 1:2500) were used as secondary antibodies. Chemiluminescent substrates (ThermoFisher Scientific, 34,077 and 34,095) and autoradiography film (Denville) were used for detection.
as §1, with “blot.” for “blot:”, “Anti-rabbit IgG HRP-linked (Cell Signaling Technology, 7074, 1:2500) and anti-mouse IgG HRP-linked (Cell Signaling Technology, 7076, 1:2500) were used as secondary antibodies. Chemiluminescent substrates (ThermoFisher Scientific, 34,077 and 34,095) and autoradiography film (Denville) were used for detection.” left out
For orientation: Immunoblotting shows a protein as a band on a membrane.

For `CN(C)C(=S)N/N=C/c1nccc2cc(F)ccc12` (mixture of isomers) [HCT13, (E)-2-((6-Fluoroisoquinolin-1-yl)methylene)-N,N-dimethylhydrazine-1-carbothioamide and (Z)-2-((6-Fluoroisoquinolin-1-yl)methylene)-N,N-dimethylhydrazine-1-carbothioamide], the “phosphorylation of CHEK1 and CHEK2” value is “consistently observed phosphorylation”. For the setting “24 h”, the “heme oxygenase-1 (HO-1) levels” value was “increased”. Further, under “Cu(II)-supplemented cells, 24 hours”, the “AMPK phosphorylation (T172)” value is “induction”. For the same molecule, the “phosphorylation of CHEK1 and CHEK2” value (listed as HCT-13) was “phosphorylation of CHEK1 and CHEK2 kinases was observed”. For the setting “HCT-13 + Cu(II)”, the “DNA damage marker pH2AX” value is given as “induction of DNA damage marker pH2AX” and the “apoptotic marker caspase 3” value is on record as “cleavage of apoptotic marker caspase 3”.
